According to the supplement of paper PMC10307832:

Experiments:
Assay in all cases: relative viability (nuclei count vs DMSO), 5 days (fraction); higher = more cells survive
[1] = system: HCC-827
In short: (§1)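 Lung cancer cell lines in 1536-well plates were dosed by pin tool the day after seeding, either with one drug alone or with a fixed anchor-drug dose plus five library-drug doses (not always all listed) in √10 steps. After 5 days, cells were fixed and their nuclei stained in one step (final 0.05% Triton X-100, 1% formaldehyde, 1 ug/ml Hoechst), then counted on 4× images. Relative viability is the nuclei count in treated wells divided by that in vehicle wells. Values are medians of duplicate plates.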

[2] = system: NCI-H2023
In short: as §1

[3] = system: NCI-H1793
In short: as §1

[4] = system: NCI-H358
In short: as §1

[5] = system: NCI-H1993
In short: as §1

[6] = system: NCI-H1975
In short: as §1

[7] = system: NCI-H1792
In short: as §1

[8] = system: NCI-H1944
In short: as §1

[9] = system: LOU-NH91
In short: as §1

[10] = system: HCC-44
In short: as §1

[11] = system: LXF-289
In short: as §1

[12] = system: SW 900
In short: as §1

SMILES: Cc1csc(=NC2CCCCC2)n1/N=C/c1ccc(O)c(O)c1O [MIM1] + CC(=O)c1c(C)c2cnc(Nc3ccc(N4CCNCC4)cn3)nc2n(C2CCCC2)c1=O [Palbociclib] (partner 0.5 µM)
- relative viability ([1]; first compound 2 µM): 0.454
- relative viability ([1]; first compound 6.325 µM): 0.307
- relative viability ([1]; first compound 20 µM): 0.227
- relative viability ([2]; first compound 0.2 µM): 0.393
- relative viability ([2]; first compound 0.6325 µM): 0.387
- relative viability ([2]; first compound 2 µM): 0.391
- relative viability ([2]; first compound 6.325 µM): 0.194
- relative viability ([2]; first compound 20 µM): 0.0614
- relative viability ([3]; first compound 0.2 µM): 0.317
- relative viability ([3]; first compound 2 µM): 0.353
- relative viability ([3]; first compound 6.325 µM): 0.29
- relative viability ([3]; first compound 20 µM): 0.293
- relative viability ([4]; first compound 0.2 µM): 0.145
- relative viability ([4]; first compound 0.6325 µM): 0.153
- relative viability ([4]; first compound 2 µM): 0.122
- relative viability ([4]; first compound 6.325 µM): 0.118
- relative viability ([4]; first compound 20 µM): 0.128
- relative viability ([5]; first compound 0.2 µM): 0.624
- relative viability ([5]; first compound 0.6325 µM): 0.706
- relative viability ([5]; first compound 2 µM): 0.659
- relative viability ([5]; first compound 6.325 µM): 0.514
- relative viability ([5]; first compound 20 µM): 0.349
- relative viability ([6]; first compound 0.2 µM): 0.529
- relative viability ([6]; first compound 0.6325 µM): 0.67
- relative viability ([6]; first compound 2 µM): 0.519
- relative viability ([6]; first compound 6.325 µM): 0.256
- relative viability ([6]; first compound 20 µM): 0.169
- relative viability ([7]; first compound 0.2 µM): 0.659
- relative viability ([7]; first compound 0.6325 µM): 0.622
- relative viability ([7]; first compound 2 µM): 0.644
- relative viability ([7]; first compound 6.325 µM): 0.475
- relative viability ([7]; first compound 20 µM): 0.56
- relative viability ([8]; first compound 0.2 µM): 0.369
- relative viability ([8]; first compound 0.6325 µM): 0.314
- relative viability ([8]; first compound 2 µM): 0.248
- relative viability ([8]; first compound 6.325 µM): 0.255
- relative viability ([8]; first compound 20 µM): 0.186
- relative viability ([9]; first compound 0.2 µM): 0.524
- relative viability ([9]; first compound 0.6325 µM): 0.569
- relative viability ([9]; first compound 2 µM): 0.516
- relative viability ([9]; first compound 6.325 µM): 0.499
- relative viability ([9]; first compound 20 µM): 0.36
- relative viability ([10]; first compound 0.2 µM): 0.902
- relative viability ([10]; first compound 0.6325 µM): 0.981
- relative viability ([10]; first compound 2 µM): 0.94
- relative viability ([10]; first compound 6.325 µM): 0.608
- relative viability ([10]; first compound 20 µM): 0.578
- relative viability ([11]; first compound 0.2 µM): 0.603
- relative viability ([11]; first compound 0.6325 µM): 0.594
- relative viability ([11]; first compound 2 µM): 0.583
- relative viability ([11]; first compound 6.325 µM): 0.535
- relative viability ([11]; first compound 20 µM): 0.237
- relative viability ([12]; first compound 0.2 µM): 0.632
- relative viability ([12]; first compound 0.6325 µM): 0.581
- relative viability ([12]; first compound 2 µM): 0.507
- relative viability ([12]; first compound 6.325 µM): 0.211
- relative viability ([12]; first compound 20 µM): 0.171
